From patent publication US6784184B2, “5-(arylsulfonyl)-,5-(arylsulfinyl), and 5-(arylsulfanyl)-thiazolidine-2,4-diones useful for inhibition of farnesyl-protein transferase” (Wyeth Holdings Corporation, priority 2001, dated 2004)

How the values were obtained:
[1] = tested on: K-ras dependent human colon carcinoma (LoVo); assay: In vivo effects against K-ras dependent human colon carcinoma (LoVo); conditions: rats; for S/T = No. Survivors/No.Treated: Day +35 post tumor cell implantation
Method: Compounds of this invention were tested for in vivo effects in rats against various tumors. For the compound of Example 114, when tested against a K-ras dependent human colon carcinoma (LoVo), the following results were obtained (Table II): […]

[2] = molecular target: FPTase (K-Ras substrate) (UniProt P29702+P49355); assay: in vitro FTase Inhibition Assay, K-Ras as substrate for farnesylation; format: biochemical; conditions: K-Ras used as substrate for farnesylation
Procedure, shortened: (§1)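 His6-Ras substrate ([…]) with 10 ng FPTase in 50 mM Tris pH 7.5, ZnCl2, MgCl2, KCl, DTT, 0.2% octyl-β-glucoside, 1% DMSO; incubated 30-90 min. TCA/SDS-precipitated Ras filtered, 3H-FPP incorporation counted; % inhibition from background-corrected cpm versus no-compound control.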

[3] = molecular target: FPTase (H-Ras substrate) (UniProt P29702+P49355); assay: in vitro FTase Inhibition Assay, H-Ras as substrate for farnesylation; format: biochemical; conditions: H-Ras used as substrate for farnesylation
Procedure, shortened: as §1

Row | IC50 [2] [nM] | IC50 [3] [nM] | Molecule | also measured
1 |  |  | CC[C@]1(O)C[C@H]2CN(CCc3c([nH]c4ccccc34)[C@@](C(=O)OC)(c3cc4c(cc3OC)N(C=O)[C@H]3[C@@](O)(C(=O)OC)[C@H](OC(C)=O)[C@]5(CC)C=CCN6CC[C@]43[C@@H]65)C2)C1 [Vincristine, reference compound] | S/T = No. Survivors/No.Treated ([1]; 1 mg/kg IP on days 5, 9 and 13): 9/10
2 | 7 to 90 | 2 to 32 | COc1ccc(S(=O)(=O)C2(CCCC#Cc3cc(NC(=O)OCC(C)(C)C)ccc3C)SC(=O)NC2=O)cc1 (stereo not drawn) [Example 180, (3-{5-[5-(4-Methoxybenzenesulfonyl)-2,4-dioxothiazolidin-5-yl]pent-1-ynyl}-4-methylphenyl)carbamic Acid Neopentyl Ester] | 
3 | 4000 | 1210 | O=C1NC(=O)C(CCCC#Cc2ccc(-n3cccc3)cc2)(S(=O)(=O)c2ccc(I)cc2)S1 (stereo not drawn) [Example 162, 5-(4-Iodo-benzenesulfonyl)-5-[5-(4-pyrrol-1-yl-phenyl)pent-4-ynyl]-thiazolidine-2,4-dione] | 
4 | 1000 to 3600 | 150 to 300 | 5-[5-(4-Chloro-2-methylphenyl)pent-4-ynyl]-5-(4-trifluoromethoxy-benzenesulfonyl)thiazolidine-2,4-dione [Example 140] | 
5 | 110 to 1000 | 10 to 30 | COc1ccc(S(=O)(=O)C2(CCCC#Cc3ccccc3Cl)SC(=O)NC2=O)cc1 (stereo not drawn) [Example 101, 5-[5-(2-Chlorophenyl)pent-4-ynyl]-5-(4-methoxybenzenesulfonyl)-thiazolidine-2,4-dione] | 
6 | 1000 to 6100 | 170 to 200 | COc1ccc(S(=O)(=O)C2(CCCC#Cc3ccc(C(F)(F)F)cc3)SC(=O)NC2=O)cc1 (stereo not drawn) [Example 153, 5-(4-Methoxybenzenesulfonyl)-5-[5-(4-trifluoromethylphenyl)pent-4-ynyl]-thiazolidine-2,4-dione] | 
7 | 3300 | 200 | COc1ccc(S(=O)(=O)C2(CC#Cc3ccc(-c4ccccc4)cc3)SC(=O)NC2=O)cc1 (stereo not drawn) [Example 171, 5-(3-Biphenyl-4-yl-prop-2-ynyl)-5-(4-methoxybenzenesulfonyl)-thiazolidine-2,4-dione] | 
8 | 1400 to 2100 | 65 to 130 | O=C1NC(=O)C(CCCC#Cc2ccc(Cl)cc2)(S(=O)(=O)c2cccc3cccnc23)S1 (stereo not drawn) [Example 109, 5-[5-(4-Chlorophenyl)pent-4-ynyl]-5-(quinoline-8-sulfonyl)-thiazolidine-2,4-dione] | 
9 | 100 to 700 | 6 to 20 | COc1ccc(S(=O)(=O)C2(CCCC#Cc3cc(NC(=O)OC(C)C)ccc3C)SC(=O)N(C(=O)OC(C)C)C2=O)cc1 (stereo not drawn) [Example 229, Isopropyl 5-(5-{5-[(isopropoxycarbonyl)-amino]-2-methylphenyl}pent-4-ynyl)-5-[(4-methoxyphenyl)sulfonyl]-2,4-dioxo-1,3-thiazolidine-3-carboxylate] | 
10 | 600 to 5000 | 140 to 170 | Cc1ccc(Cl)cc1C#CCCCC1(S(=O)(=O)c2ccc(OC(F)(F)F)cc2)SC(=O)NC1=O (stereo not drawn) [Example 139, 5-[5-(5-Chloro-2-methylphenyl)pent-4-ynyl]-5-(4-trifluoromethoxybenzene-sulfonyl)thiazolidine-2,4-dione] | 
11 | > 10000 | 150 | COc1cccc(S(=O)(=O)C2(CCCC#Cc3cccs3)SC(=O)NC2=O)c1 (stereo not drawn) [Example 164, 5-(3-Methoxybenzenesulfonyl)-5-(5-thiophen-2-yl-pent-4-ynyl)-thiazolidine-2,4-dione] | 
12 | 1900 | 70 | COc1ccc(S(=O)(=O)C2(CCCC#Cc3cccc([N+](=O)[O-])c3)SC(=O)NC2=O)cc1 (stereo not drawn) [Example 118, 5-(4-Methoxybenzenesulfonyl)-5-[5-(3-nitrophenyl)pent-4-ynyl]-thiazolidine-2,4-dione] | 
13 | 32 to 56 | 5 to 10 | COc1ccc(S(=O)(=O)C2(CCCC#Cc3cc(NC(=O)OCC(C)C)ccc3C)SC(=O)NC2=O)cc1 (stereo not drawn) [Example 182, (3-{5-[5-(4-Methoxybenzenesulfonyl)-2,4-dioxothiazolidin-5-yl]pent-1-ynyl}-4-methylphenyl)carbamic Acid Isobutyl] | 
14 | 37 to 800 | 21 to 400 | Cc1ccc(C#CCCCC2(S(=O)(=O)c3ccc(I)cc3)SC(=O)NC2=O)c(C)c1 (stereo not drawn) [Example 137, 5-[5-(2,4-Dimethylphenyl)pent-4-ynyl]-5-(4-iodobenzenesulfonyl)-thiazolidine-2,4-dione] | 
15 | 320 to 1000 | 23 to 56 | COc1ccc(S(=O)(=O)C2(CCCC#Cc3ccc([N+](=O)[O-])cc3C)SC(=O)NC2=O)cc1 (stereo not drawn) [Example 130, 5-(4-Methoxybenzenesulfonyl)-5-[5-(2-methyl-4-nitrophenyl)-pent-4-ynyl]-thiazolidine-2,4-dione] | 
16 | 7000 | 400 | O=C1NC(=O)C(CCCC#Cc2ccc(Cl)cc2)(S(=O)(=O)c2ccc([N+](=O)[O-])cc2)S1 (stereo not drawn) [Example 110, 5-[5-(4-Chlorophenyl)pent-4-ynyl]-5-(4-nitrobenzenesulfonyl)-thiazolidine-2,4-dione] | 

Row | Molecule | IC50 [2] [nM] | IC50 [3] [nM] | also measured
17 | COc1ccc(S(=O)(=O)C2(CCCC#Cc3cc(Cl)ccc3Cl)SC(=O)NC2=O)cc1 (stereo not drawn) [Example 114, 5-[5-(2,5-Dichloro-phenyl)pent-4-ynyl]-5-(4-methoxy-benzenesulfonyl)-thiazolidine-2,4-dione] | 32 to 320 | 13 to 32 | Mean Tumor Weight ([1]; Day 8, 75* mg/kg IP, BID days 1-20, prepared in 2% Tween 80 in D5W, vs 2% Tween in D5W): 86 mg; % T/C ([1]; Day 15, 75* mg/kg IP, BID days 1-20, prepared in 2% Tween 80 in D5W, vs 2% Tween in D5W): 150%; S/T = No. Survivors/No.Treated ([1]; 50 mg/kg IP, BID days 1-20, Methocel/Tween 80 series): 5/10; S/T = No. Survivors/No.Treated ([1]; 75 mg/kg IP, BID days 1-20, Methocel/Tween 80 series): 8/10; S/T = No. Survivors/No.Treated ([1]; 100 mg/kg IP, once a day days 1-20, Methocel/Tween 80 series): 9/10; S/T = No. Survivors/No.Treated ([1]; 100 mg/kg PO, BID days 1-20, 20% BCD in 0.1 N HCl series): 9/10
